Source: US9125352B2, “Method for maturing and synchronizing conifer somatic embryos” (SweTree Technologies AB, priority 2010, dated 2015)

Experiments:
somatic embryo cultures = assay: Embryo culture in medium with plasmolytic or near plasmolytic concentration of sugar alcohol (general findings); type: cell-based; details: for effect on maturation in the embryo cultures: plasmolytic or near plasmolytic concentration
From the text: The invention is based on a serendipitous discovery. Gene transfer to spruce somatic embryos using a particle gun was experimented with, using a special medium originally designed for use with gene transfer for embryogenic cultures, containing 0.25, M myo-inositol. The resulting plasmolysis reduces damage during penetration by the gold particles, since it relaxes the tension in the cell membranes and minimizes tearing. By mistake, the somatic embryos were left in this medium for 12, days instead of returning them to the normal proliferation medium as intended. […] Consequently, the cells are first plasmolyzed and then gradually deplasmolyzed.

[1] = system: somatic embryos of Norway spruce, cell line 06:28:05; assay: Mature embryos left 12 days in maturation medium with 0.25 M inositol after particle bombardment (Example 1); type: cell-based
From the text: The aim of the experiment was to infect somatic embryos of Norway spruce with a virus using a particle gun according to a routine method (Clapham et al. 2000: Scand. J. For. Res. 15:151-160) and derive plants containing the virus. The original standard bombardment procedure was developed for the transformation of embryogenic cultures consisting of immature embryos (i.e. proembryonic masses or PEMs). In the original protocol, from one to two hours before bombardment with gold particles coated with DNA, the cells are temporarily plasmolyzed with 0.25 M myo-inositol in proliferation medium (Table 4) to reduce damage from the penetration of the gold particles.
In the present experiment, mature embryos instead of PEMs were bombarded. The cultures of cell line 06:28:05, had been matured on standard DKM medium containing ABA for 50, days before bombardment. The embryos were exposed to medium containing 0.25, M inositol for 1-2, hours before bombardment. After bombardment the cells were unintentionally left in maturation medium containing 0.25, M inositol for 12, days, then returned to standard DKM medium containing ABA. […] About 50 plantlets with more or less well developed roots were planted out at once in pots containing mineral wool, which is not usually possible; fifteen of these survived and continued to grow. Sixty-two additional plantlets were grown aseptically on solid standard germination medium (quarter strength Schenk and Hildebrandt) to develop the root system for about 2, months; 51, of these grew well enough to plant out in pots of mineral wool. At least 48, of the plants were growing vigorously a month later. The appearance of these somatic embryo-derived plants encouraged the inventors to believe that mature embryos exposed to the relatively high concentration of inositol in the present experiment were of unusually high quality and ready for germination, without partial drying under high humidity for 2-3, weeks as in the standard procedure.

[2] = system: embryogenic cells, cell-line 06:28:05; assay: Comparison of inositol with other sugar alcohols and with sucrose on solid DKM+ABA maturation medium (Example 3); type: cell-based, Norway spruce; details: for Plates with 10 high quality embryos: addition to standard medium: 0.25 M (or 0.125 M + 0.125 M), three plates of 1.0-1.5 g cells per treatment
From the text: The action of 0.25, M inositol in improving somatic embryo quality is likely to be partly osmotic, partly nutritional, with cell signaling effects also involved. The inventors tested whether 0.25, M inositol could be replaced with 0.25, M of other sugar alcohols (mannitol and sorbitol) or 0.25, M extra sucrose by spreading 1.0, to 1.5, g fresh weight of embryogenic cells, cell-line 06:28:05, on each of six plates of solid DKM+ABA maturation medium for continued growth and development over four weeks, with one subculture after 2, weeks. The cells were then subcultured onto three plates each (1.0-1.5, g cells per plate) of medium containing in addition either a) 0.25, M inositol, or b) 0.125, M mannitol and 0.125, M sorbitol, or c) 0.25, M sucrose. Control cells continued on standard medium. After three weeks, embryos of good quality were transferred to germination medium, ten embryos per petri dish, as a rough quantitative estimate of quality.

[3] = system: embryogenic callus of Norway spruce, cell-lines 61:21, 19:01 and 28:05; assay: Inositol concentration series on maturation medium, embryo quality measurements (Example 4); type: cell-based; details: for root development, indicating premature germination: FIG. 2a-c
From the text: To investigate how various inositol concentrations synchronize embryo development and affect the quality of the developing embryos, three cell-lines of embryogenic callus of Norway spruce, cell-lines 61:21, 19:01, and 28:05, were exposed to 1, week on prematuration medium, and matured for 40, days, 36, days or 33, days, respectively on maturation medium with subculturing every two weeks. Small clumps about 1, cm diameter of maturing embryos were then subcultured on maturation medium containing 0.0005, M (here denoted 0, M), 0.06, M, 0.1, M, 0.2, M, 0.25, M or […] inositol.
Twenty individual mature embryos or small plantlets were picked randomly from the plates and the following measurements were taken, for quality measurement, see FIG. 1: width of hypocotyls (1), width across the cotyledons one third of the way down of the hypocotyls (2), width across the cotyledons two third of the way down of the hypocotyls (3) and length of the hypocotyls (4), length of root (5).

[4] = system: Norway spruce embryos, cell-lines 95:61:21 (61:21), 19:01 and 28:05; assay: Germination (root length) on germination medium after inositol treatment, without partial drying (Example 5); type: cell-based
Procedure: Then 15, embryos from each concentration of inositol were transferred to germination medium (same as the prematuration medium). The progress of germination was measured by root length after 11, days on germination medium. Germination was fastest for the embryos that had been treated with 0.25, M inositol FIG. 6a. The difference between the root lengths after treatment at the three highest concentrations compared with those at the three lowest concentrations was highly significant by t-test (P<0.001). The experiment was repeated with another replicate of cell-line 61:21. This time, the inositol treatment was for 25, days, the small clumps of embryos were transferred to prematuration medium for 9, days, then 10, embryos were individually planted on prematuration medium and root length was measured 29, days later. […] The length of inositol treatment was 16, days for both lines. Root length was measured 12, or 14, days according to cell-line after transfer of 20, embryos for each concentration of inositol to prematuration medium for germination. For all four experiments of Example 5, root length after treatments of 0.2, to 0.3 M inositol was compared to root length after treatments with 0, to 0.1, M inositol in a paired t-test. […] The inventors have compared on a small scale the germination of inositol-treated embryos with partially dried embryos that have been matured by standard procedures.

[5] = system: Mexican Yellow Pine, Pinus oocarpa, line 2; assay: Corresponding inositol experiments with Mexican Yellow Pine (Example 6); type: cell-based; details: inositol series as for Scots pine
[6] = system: embryogenic callus of Scots pine, Pinus sylvestris, cell-line 42:6:3; assay: Inositol concentration series on DCR maturation medium and germination on DKM (Example 6); type: cell-based
From the text: In order to verify the broad use of the newly invented method, additional conifers have been tested by adapting the methods of Examples 4, and 5. Embryogenic callus of Scots pine, Pinus sylvestris, cell-line 42:6:3, was proliferated on DCR medium (Burg et al. 2007:, J. Exp. Bot. 58: 687-698) containing 2,4-D and BA at the same concentrations as described for spruce. The cells were taken through the early maturation step on DCR medium containing 7.5% polyethylene glycol 400, 3% maltose (replacing sucrose) and 16, mg per liter abscisic acid (Burg et al. 2007:, J. Exp. Bot. 58: 687-698). Samples of cells were then exposed to the same medium containing inositol at concentrations of 0.0005, M 0.1, M, 0.2, M, 0.25, M, 0.3, M or 0.5 M for four weeks. […] Somatic embryogenesis is more problematic in pine than in spruce, so that experiments with mature embryos were on a small scale.

[7] = system: embryos of cell-line 28:05; assay: Growth of germinated inositol-treated embryos in stonewool pots for three months (Example 5); type: in vivo, Norway spruce
Procedure: Embryos of cell-line 28:05, treated with 0.25, M inositol and germinated in vitro as described above were grown on in stonewool in plastic pots 8×8×10, cm with standard commercial mineral nutrition in a growth chamber in continuous light at 20° C. for three months.

[8] = system: embryogenic cultures of cell-line 06:28:05; assay: Maturation in temporary-immersion bioreactors, DKM+ABA then DKM+0.25 M inositol+ABA, then germination (Example 2); type: cell-based, Norway spruce
Procedure: Several experiments were performed to confirm the observations of Example 1 and to refine the novel culture method. Subsequent experiments confirm that the process of bombardment itself has no effect additional to the inclusion of 0.25, M myo-inositol in the medium. In the present experiment, embryogenic cultures of the same cell-line 06:28:05, were matured in bioreactors that enabled periodic temporary submersion in liquid DKM containing ABA. In two bioreactors, the embryos were matured for 38, days in DKM+ABA, then for 25 days in DKM+0.25, M inositol+ABA. In two control bioreactors, the cultures were maintained continuously in DKM+ABA, without the inositol treatment.
Embryos from the experimental and control reactors were placed on solid germination media in petri dishes mainly to optimize germination media. Plantlet quality was assessed after 6, days' germination as ‘bent’ or ‘not bent’. Whereas only 12, out of 134, (9%) inositol-treated embryos developed into bent plantlets, 50, out of 140, (36%) of the control embryos developed into bent plantlets. The difference was highly significant (P<0.0001) by Fisher's contingency test.

[9] = high concentrations of inositol
[10] = 0.25 M inositol, after 6 days' germination, out of 134 embryos

O[C@H]1[C@H](O)[C@@H](O)[C@H](O)[C@@H](O)[C@H]1O [inositol, cis-1,2,3,5-trans-4,6-cyclohexanehexol]
need for partial drying before germination (somatic embryo cultures; [9]): require no further partial drying before germination | quality of mature embryos formed (somatic embryo cultures; high concentrations of inositol (myo-inositol) in the culture media): more robust mature embryos with improved rooting capabilities | effect on maturation in the embryo cultures (somatic embryo cultures): induce synchronous maturation | embryo appearance compared with embryos from the standard protocol ([1]; 0.25 M inositol): strikingly more uniform and broader in relation to length | plantlets that survived and continued to grow after being planted out at once in pots containing mineral wool ([1]; 0.25 M inositol 12 days, of about 50 plantlets planted out): fifteen | plantlets that grew well enough to plant out in pots of mineral wool ([1]; 0.25 M inositol 12 days, of sixty-two plantlets grown about 2 months on solid germination medium): 51 | plants growing vigorously a month later ([1]; 0.25 M inositol 12 days, of the 51 planted out in mineral wool): At least 48 | germination after return to standard DKM medium containing ABA ([1]; 0.25 M inositol for 12 days, observed after 8 days on standard DKM+ABA): many embryos had germinated and formed healthy well developed small plantlets | embryos of good quality relative to mannitol plus sorbitol ([2]; 0.25 M inositol vs 0.125 M mannitol plus 0.125 M sorbitol): about twice | Plates with 10 high quality embryos ([2]; three weeks): 6 | effect on embryo development (summary) ([3]; 0.2-0.3 M inositol): synchronized development of the embryos by inhibiting germination but not embryo development | root development, indicating premature germination ([3]; 0.2-0.3 M inositol): inhibited almost completely | ratio of width one third down the hypocotyl (2) to width two thirds down the hypocotyl (3) ([3]; 0.2-0.3 M inositol, FIG. 5a-c): just above unity | coefficient of variation of width across the cotyledons (minimum) ([3]; cell-line 28:05, 0.25 M inositol, FIG. 4): 35% | inositol concentration at which the coefficient of variation of hypocotyl length is at a minimum (synchrony maximal) ([3]; cell-line 61:21, FIG. 3): 0.25 M | root development, indicating premature germination ([3]; low concentrations of inositol): present | variation in hypocotyl length ([3]; the other two cell-lines (19:01, 28:05), higher concentrations of inositol): reduced markedly | root length after 0.2 to 0.3 M inositol compared with 0 to 0.1 M inositol ([4]; all four experiments of Example 5, paired t-test, P<0.03): significantly greater | germination, measured by root length after 11 days on germination medium ([4]; cell-line 95:61:21, 0.25 M inositol for 17 days, 15 embryos, FIG. 6a): fastest | subsequent root growth on germination medium ([4]; cell-lines 19:01 and 28:05, 16 days inositol, root length at 12 or 14 days, FIGS. 6c, 6d): advantages of treatment with high concentrations of inositol for subsequent root growth | rooting, root length measured 29 days after planting on prematuration medium ([4]; replicate of cell-line 61:21, 0.25 M inositol for 25 days, 10 embryos, FIG. 6b): rooting fastest | germination compared with partially dried embryos matured by standard procedures ([4]; small scale comparison): shoots grow faster and more vigorously | outcome compared with the Scots pine experiments [5]: showed the same tendencies | signs of premature germination (hypocotyl extension, greening of cotyledons) ([6]; 0.0005 M and 0.1 M inositol, four weeks): some of the embryos showed characteristic signs of premature germination | maturation and precocious germination ([6]; 0.2-0.3 M inositol, four weeks): precocious germination was inhibited | proportion of embryos that developed healthy roots on the germination medium, compared with 0.0005 M ([6]; 0.25 M inositol): higher proportion | signs of stress (red colour under the cotyledons) within two days of germination on DKM ([6]; 0.25 M inositol): no such signs of stress | condition of embryos compared with those exposed to 0.0005 M inositol ([6]; 0.25 M inositol, groups of ten embryos germinated on DKM): in better condition | effect on further maturation of the embryos ([6]; 0.5 M inositol): inhibited further maturation of the embryos | condition of plants after three months in stonewool ([7]; 0.25 M inositol, growth chamber, continuous light, 20° C.): vigorous and healthy | longer term effects on subsequent growth [7, 9]: no unexpected longer term effects on subsequent growth | embryos that developed into bent plantlets (number) [8, 10]: 12 | embryos that developed into bent plantlets (percent) [8, 10]: 9% | embryo appearance compared with controls ([8]; 38 days DKM+ABA then 25 days DKM+0.25 M inositol+ABA, bioreactors): strikingly more uniform, and broader in relation to length | yield of high-quality embryos relative to untreated controls ([8]; bioreactor experiment, 0.25 M inositol): six to eight

OC[C@@H](O)[C@@H](O)[C@H](O)[C@H](O)CO [mannitol]
effect on maturation in the embryo cultures (somatic embryo cultures): induce synchronous maturation

OC[C@@H](O)[C@@H](O)[C@H](O)[C@@H](O)CO [sorbitol]
effect on maturation in the embryo cultures (somatic embryo cultures): induce synchronous maturation

OC[C@H]1O[C@@](CO)(O[C@H]2O[C@H](CO)[C@@H](O)[C@H](O)[C@H]2O)[C@@H](O)[C@@H]1O [sucrose, reference compound]
effect on embryo quality ([2]; 0.25 M addition to DKM+ABA, three weeks): clearly detrimental effect | Plates with 10 high quality embryos ([2]; three weeks): 0
